From ChEMBL document CHEMBL1124945, “1-(substituted-benzyl)imidazole-2(3H)-thione inhibitors of dopamine beta-hydroxylase” (J Med Chem, 1990) come the findings set out here.

The experiment has as its target T1, Dopamine beta-hydroxylase (Rattus norvegicus, UniProt Q05754).
T1 sequence (Q05754 whole entry): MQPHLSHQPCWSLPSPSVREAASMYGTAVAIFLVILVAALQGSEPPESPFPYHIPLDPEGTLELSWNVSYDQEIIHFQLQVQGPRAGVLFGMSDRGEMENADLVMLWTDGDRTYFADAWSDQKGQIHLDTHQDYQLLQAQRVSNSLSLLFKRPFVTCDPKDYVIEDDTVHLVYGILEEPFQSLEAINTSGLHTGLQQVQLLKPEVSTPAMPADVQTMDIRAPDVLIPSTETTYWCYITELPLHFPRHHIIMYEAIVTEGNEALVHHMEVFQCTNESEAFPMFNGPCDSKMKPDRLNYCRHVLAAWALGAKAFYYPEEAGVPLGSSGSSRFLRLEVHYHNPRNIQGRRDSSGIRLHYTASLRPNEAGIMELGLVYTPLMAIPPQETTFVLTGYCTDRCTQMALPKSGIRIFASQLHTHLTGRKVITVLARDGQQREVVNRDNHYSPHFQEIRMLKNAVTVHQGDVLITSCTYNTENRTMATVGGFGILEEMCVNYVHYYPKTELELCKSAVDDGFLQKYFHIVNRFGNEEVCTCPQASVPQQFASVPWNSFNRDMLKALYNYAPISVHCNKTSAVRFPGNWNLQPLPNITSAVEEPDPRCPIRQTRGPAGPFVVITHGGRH
Kind of experiment: Inhibition of dopamine beta-hydroxylase (DbetaH) […].
As a reminder, the IC50 is the concentration at which inhibition is half-maximal. The compound `S=c1[nH]ccn1Cc1ccccc1` showed an IC50 of 33.1 µM.
Turning to `Oc1ccc(Cn2cc[nH]c2=S)cc1C(F)(F)F`, the IC50 is 120 µM.
In the case of `S=c1[nH]ccn1Cc1c(Cl)cccc1Cl` it was 708 µM.
For the compound `O=[N+]([O-])c1ccc(Cn2cc[nH]c2=S)cc1`, half-maximal inhibition (IC50) was put at 52.5 µM.
Regarding `S=c1[nH]ccn1Cc1cc(Cl)cc(Cl)c1`, the IC50 was 2.4 µM.
In the case of `COc1ccccc1Cn1cc[nH]c1=S` it was 74.1 µM.
`S=c1[nH]ccn1Cc1cccc(Cl)c1Cl`: inhibition was half-maximal at 52.5 µM (IC50).
`COc1ccc(Cn2cc[nH]c2=S)cc1F` had an IC50 of 74.1 µM.
Turning to `COc1c(F)cc(Cn2cc[nH]c2=S)cc1F`, the IC50 was 36.3 µM.
The value for `S=c1[nH]ccn1Cc1c(Cl)cc(Cl)cc1Cl` was 102 µM.
Consider `S=c1[nH]ccn1Cc1ccccc1Cl`, for which inhibition was half-maximal at 355 µM (IC50).
As to `COc1c(Cl)cc(Cn2cc[nH]c2=S)cc1Cl`, the IC50 was 46.8 µM.
`S=c1[nH]ccn1Cc1ccc(Cl)cc1` had an IC50 of 95.5 µM.
`COc1ccc(Cn2cc[nH]c2=S)cc1OC`: the concentration for half-maximal inhibition (IC50) was 339 µM.
The value for `S=c1[nH]ccn1Cc1ccc(Cl)cc1Cl` was 17 µM; that for `Oc1c(F)cc(Cn2cc[nH]c2=S)cc1F` was 0.0741 µM.
For the compound `COc1ccc(Cn2cc[nH]c2=S)cc1Br`, the midpoint of inhibition, the IC50, lay at 83.2 µM.
For the compound `S=c1[nH]ccn1Cc1cc(Cl)ccc1Cl`, the 50% inhibitory concentration (IC50) is 97.7 µM.
In the case of `Oc1cccc(Cn2cc[nH]c2=S)c1`, the IC50 is 148 µM.
In the case of `O=[N+]([O-])c1cc(Cn2cc[nH]c2=S)ccc1O`, inhibition was half-maximal at 30.9 µM (IC50).
In the case of `Oc1c(F)c(F)c(Cn2cc[nH]c2=S)c(F)c1F`, the IC50 was 61.7 µM.
Take `COc1ccc(Cn2cc[nH]c2=S)cc1C`: the IC50 is 69.2 µM.
`COc1cc(Cl)c(Cn2cc[nH]c2=S)c(Cl)c1` gave an IC50 of 155 µM.
In the case of `S=c1[nH]ccn1Cc1ccc(Br)cc1` it was 115 µM.
`Cc1cc(Cn2cc[nH]c2=S)ccc1O` gave an IC50 of 49 µM.
In the case of `COc1ccc(Cn2cc[nH]c2=S)cc1[N+](=O)[O-]` it was 355 µM.
As to `Fc1cccc(Cn2cc[nH]c2=S)c1`, the half-maximal inhibitory concentration (IC50) was 5.62 µM.
The value for `Oc1c(Cl)cc(Cn2cc[nH]c2=S)cc1Cl` was 0.676 µM.
In the case of `Oc1ccccc1Cn1cc[nH]c1=S` it was 575 µM.
In turn, `Oc1ccc(Cn2cc[nH]c2=S)cc1F` had an IC50 of 1.51 µM.
In the case of `FC(F)(F)c1ccc(Cn2cc[nH]c2=S)cc1`, the IC50 is 200 µM.
Compound `Cc1ccccc1Cn1cc[nH]c1=S` gave an IC50 of 339 µM.
`Cc1ccc(Cn2cc[nH]c2=S)cc1`: half-maximal inhibition (IC50) required 148 µM.
In turn, `COc1cccc(OC)c1Cn1cc[nH]c1=S` showed a half-maximal inhibitory concentration (IC50) of 501 µM.
The value for `S=c1[nH]ccn1Cc1ccc(Cl)c(Cl)c1` was 28.2 µM.
The value for `Oc1ccc(Cn2cc[nH]c2=S)cc1Br` was 12 µM; that for `S=c1[nH]ccn1Cc1cccc(Cl)c1` was 12 µM; that for `Oc1cc(Cl)c(Cn2cc[nH]c2=S)c(Cl)c1` was 75.9 µM.
As for `COc1ccc(Cn2cc[nH]c2=S)cc1C(F)(F)F`, the IC50 is 174 µM.
On to `Fc1ccc(Cn2cc[nH]c2=S)cc1`, for which inhibition was half-maximal at 46.8 µM (IC50).
The value for `Oc1ccc(Cn2cc[nH]c2=S)cc1Cl` was 2 µM; that for `Oc1ccc(Cn2cc[nH]c2=S)cc1O` was 2.19 µM; that for `Cc1cccc(C)c1Cn1cc[nH]c1=S` was 1000 µM.
Compound `COc1cccc(Cn2cc[nH]c2=S)c1` gave an IC50 of 158 µM.
In turn, `COc1ccc(Cn2cc[nH]c2=S)cc1` had an IC50 of 204 µM.
